Data published in the supplement of paper PMC10307832.

Key:
Assay in all cases: relative viability (nuclei count vs DMSO), 5 days (fraction); higher = more cells survive
[1] = compound: OCc1c[nH]c2ccccc12 [Indole-3-carbinol] + Cc1nc(Nc2ncc(C(=O)Nc3c(C)cccc3Cl)s2)cc(N2CCN(CCO)CC2)n1 [Dasatinib] (partner 0.075 µM)
Outline: (§1)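 Relative viability is defined as nuclei in treated wells over nuclei in vehicle wells. Duplicate plates were run and medians reported. Lung cancer cell lines in 1536-well plates were dosed by pin tool one day after seeding, with one drug or with a fixed anchor-drug dose plus five library-drug doses (not always all listed) in √10 steps, and nuclei were counted after 5 days.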

[2] = compound: OCc1c[nH]c2ccccc12 [Indole-3-carbinol] + Nc1ncn([C@H]2C[C@H](O)[C@@H](CO)O2)c(=O)n1 [Decitabine] (partner 2 µM)
Outline: as §1

[3] = compound: OCc1c[nH]c2ccccc12 [Indole-3-carbinol] + COc1cc2c(Oc3ccc(NC(=O)C4(C(=O)Nc5ccc(F)cc5)CC4)cc3F)ccnc2cc1OCCCN1CCOCC1 [Foretinib] (partner 0.25 µM)
Outline: as §1

[4] = compound: OCc1c[nH]c2ccccc12 [Indole-3-carbinol] + CC1(C)CCC(c2ccc(Cl)cc2)=C(CN2CCN(c3ccc(C(=O)NS(=O)(=O)c4ccc(N[C@H](CCN5CCOCC5)CSc5ccccc5)c(S(=O)(=O)C(F)(F)F)c4)cc3)CC2)C1 [Navitoclax] (partner 0.5 µM)
Outline: as §1

[5] = compound: OCc1c[nH]c2ccccc12 [Indole-3-carbinol] + Cc1cc(Nc2cc(N3CCN(C)CC3)nc(Sc3ccc(NC(=O)C4CC4)cc3)n2)n[nH]1 [Tozasertib] (partner 0.1 µM)
Outline: as §1

Cell Line: PC-3 [JPC-3]
- relative viability ([1]; first compound 0.253 µM): 0.979
- relative viability ([1]; first compound 0.8 µM): 1.02
- relative viability ([1]; first compound 2.53 µM): 0.986
- relative viability ([1]; first compound 8 µM): 0.949
- relative viability ([2]; first compound 0.253 µM): 0.868
- relative viability ([2]; first compound 0.8 µM): 0.832
- relative viability ([2]; first compound 2.53 µM): 0.91
- relative viability ([2]; first compound 8 µM): 0.809
- relative viability ([3]; first compound 0.253 µM): 1.07
- relative viability ([3]; first compound 0.8 µM): 1.05
- relative viability ([3]; first compound 2.53 µM): 1.02
- relative viability ([3]; first compound 8 µM): 0.967
- relative viability ([4]; first compound 0.253 µM): 0.8
- relative viability ([4]; first compound 0.8 µM): 0.804
- relative viability ([4]; first compound 2.53 µM): 0.823
- relative viability ([4]; first compound 8 µM): 0.783
- relative viability ([5]; first compound 0.253 µM): 0.873
- relative viability ([5]; first compound 0.8 µM): 0.981
- relative viability ([5]; first compound 2.53 µM): 0.879
- relative viability ([5]; first compound 8 µM): 0.866

Cell Line: PC-14
- relative viability ([1]; first compound 0.253 µM): 0.265
- relative viability ([1]; first compound 0.8 µM): 0.287
- relative viability ([1]; first compound 2.53 µM): 0.27
- relative viability ([1]; first compound 8 µM): 0.26
- relative viability ([2]; first compound 0.253 µM): 0.201
- relative viability ([2]; first compound 0.8 µM): 0.196
- relative viability ([2]; first compound 2.53 µM): 0.276
- relative viability ([2]; first compound 8 µM): 0.23
- relative viability ([3]; first compound 0.253 µM): 0.961
- relative viability ([3]; first compound 0.8 µM): 0.842
- relative viability ([3]; first compound 2.53 µM): 0.987
- relative viability ([3]; first compound 8 µM): 0.913
- relative viability ([4]; first compound 0.253 µM): 1.01
- relative viability ([4]; first compound 0.8 µM): 1.1
- relative viability ([4]; first compound 2.53 µM): 1.07
- relative viability ([4]; first compound 8 µM): 0.961
- relative viability ([5]; first compound 0.253 µM): 0.578
- relative viability ([5]; first compound 0.8 µM): 0.585
- relative viability ([5]; first compound 2.53 µM): 0.633
- relative viability ([5]; first compound 8 µM): 0.554

Cell Line: RERF-LC-KJ
- relative viability ([1]; first compound 0.253 µM): 0.815
- relative viability ([1]; first compound 0.8 µM): 0.842
- relative viability ([1]; first compound 2.53 µM): 0.846
- relative viability ([1]; first compound 8 µM): 0.762
- relative viability ([2]; first compound 0.253 µM): 0.741
- relative viability ([2]; first compound 0.8 µM): 0.69
- relative viability ([2]; first compound 2.53 µM): 0.716
- relative viability ([2]; first compound 8 µM): 0.62
- relative viability ([3]; first compound 0.253 µM): 0.873
- relative viability ([3]; first compound 0.8 µM): 0.932
- relative viability ([3]; first compound 2.53 µM): 0.815
- relative viability ([3]; first compound 8 µM): 0.819
- relative viability ([4]; first compound 0.253 µM): 1.12
- relative viability ([4]; first compound 0.8 µM): 0.907
- relative viability ([4]; first compound 2.53 µM): 0.971
- relative viability ([4]; first compound 8 µM): 1.04
- relative viability ([5]; first compound 0.253 µM): 0.441
- relative viability ([5]; first compound 0.8 µM): 0.518
- relative viability ([5]; first compound 2.53 µM): 0.546
- relative viability ([5]; first compound 8 µM): 0.509

Cell Line: SK-LU-1
- relative viability ([1]; first compound 0.253 µM): 0.194
- relative viability ([1]; first compound 0.8 µM): 0.211
- relative viability ([1]; first compound 2.53 µM): 0.178
- relative viability ([1]; first compound 8 µM): 0.208
- relative viability ([2]; first compound 0.253 µM): 0.689
- relative viability ([2]; first compound 0.8 µM): 0.626
- relative viability ([2]; first compound 2.53 µM): 0.757
- relative viability ([2]; first compound 8 µM): 0.719
- relative viability ([3]; first compound 0.253 µM): 0.851
- relative viability ([3]; first compound 0.8 µM): 0.836
- relative viability ([3]; first compound 2.53 µM): 0.911
- relative viability ([3]; first compound 8 µM): 0.763
- relative viability ([4]; first compound 0.253 µM): 0.899
- relative viability ([4]; first compound 0.8 µM): 0.783
- relative viability ([4]; first compound 2.53 µM): 0.795
- relative viability ([4]; first compound 8 µM): 0.653
- relative viability ([5]; first compound 0.253 µM): 0.303
- relative viability ([5]; first compound 0.8 µM): 0.356
- relative viability ([5]; first compound 2.53 µM): 0.367
- relative viability ([5]; first compound 8 µM): 0.302

Cell Line: SK-MES-1
- relative viability ([1]; first compound 0.253 µM): 0.472
- relative viability ([1]; first compound 0.8 µM): 0.343
- relative viability ([1]; first compound 2.53 µM): 0.387
- relative viability ([1]; first compound 8 µM): 0.417
- relative viability ([2]; first compound 0.253 µM): 0.341
- relative viability ([2]; first compound 0.8 µM): 0.415
- relative viability ([2]; first compound 2.53 µM): 0.413
- relative viability ([2]; first compound 8 µM): 0.348
- relative viability ([3]; first compound 0.253 µM): 1.03
- relative viability ([3]; first compound 0.8 µM): 0.922
- relative viability ([3]; first compound 2.53 µM): 0.946
- relative viability ([3]; first compound 8 µM): 0.882
- relative viability ([4]; first compound 0.253 µM): 1.28
- relative viability ([4]; first compound 0.8 µM): 1.3
- relative viability ([4]; first compound 2.53 µM): 1.18
- relative viability ([4]; first compound 8 µM): 1.18
- relative viability ([5]; first compound 0.253 µM): 0.904
- relative viability ([5]; first compound 0.8 µM): 1.04
- relative viability ([5]; first compound 2.53 µM): 0.932
- relative viability ([5]; first compound 8 µM): 0.907

Cell Line: SW 1573
- relative viability ([1]; first compound 0.253 µM): 0.553
- relative viability ([1]; first compound 0.8 µM): 0.653
- relative viability ([1]; first compound 2.53 µM): 0.666
- relative viability ([1]; first compound 8 µM): 0.407
- relative viability ([2]; first compound 0.253 µM): 0.48
- relative viability ([2]; first compound 0.8 µM): 0.535
- relative viability ([2]; first compound 2.53 µM): 0.636
- relative viability ([2]; first compound 8 µM): 0.417
- relative viability ([3]; first compound 0.253 µM): 1.12
- relative viability ([3]; first compound 0.8 µM): 1.04
- relative viability ([3]; first compound 2.53 µM): 1.02
- relative viability ([3]; first compound 8 µM): 0.812
- relative viability ([4]; first compound 0.253 µM): 1.1
- relative viability ([4]; first compound 0.8 µM): 1.13
- relative viability ([4]; first compound 2.53 µM): 1.03
- relative viability ([4]; first compound 8 µM): 0.901
- relative viability ([5]; first compound 0.253 µM): 0.187
- relative viability ([5]; first compound 0.8 µM): 0.233
- relative viability ([5]; first compound 2.53 µM): 0.135
- relative viability ([5]; first compound 8 µM): 0.176

Cell Line: UMC-11
- relative viability ([1]; first compound 0.253 µM): 0.482
- relative viability ([1]; first compound 0.8 µM): 0.451
- relative viability ([1]; first compound 2.53 µM): 0.514
- relative viability ([1]; first compound 8 µM): 0.45
- relative viability ([2]; first compound 0.253 µM): 0.608
- relative viability ([2]; first compound 0.8 µM): 0.638
- relative viability ([2]; first compound 2.53 µM): 0.709
- relative viability ([2]; first compound 8 µM): 0.593
- relative viability ([3]; first compound 0.253 µM): 0.914
- relative viability ([3]; first compound 0.8 µM): 1.1
- relative viability ([3]; first compound 2.53 µM): 1.05
- relative viability ([3]; first compound 8 µM): 1.09
- relative viability ([4]; first compound 0.253 µM): 0.259
- relative viability ([4]; first compound 0.8 µM): 0.308
- relative viability ([4]; first compound 2.53 µM): 0.329
- relative viability ([4]; first compound 8 µM): 0.325
- relative viability ([5]; first compound 0.253 µM): 0.196
- relative viability ([5]; first compound 0.8 µM): 0.202
- relative viability ([5]; first compound 2.53 µM): 0.187
- relative viability ([5]; first compound 8 µM): 0.204
